Results reported in ChEMBL document CHEMBL4765275, “Discovery of novel tertiary amide derivatives as NEDDylation pathway activators to inhibit the tumor progression in vitro and in vivo” (Eur J Med Chem, 2020).
pIC50: −log10 of the molar value.

Key:
Type in all cases: functional, cell-based
[1] = system: PC-3; assay: Antiproliferative activity against human PC-3 cells measured after 48 hrs by MTT assay; conditions: PC-3, 48 h
[2] = system: MGC-803; assay: Antiproliferative activity against human MGC-803 cells measured after 48 hrs by MTT assay; conditions: MGC-803, 48 h
[3] = system: MCF7; assay: Antiproliferative activity against human MCF7 cells measured after 48 hrs by MTT assay; conditions: MCF7, 48 h

Row | Structure (SMILES) | pIC50 [1] | pIC50 [2] | pIC50 [3]
1 | O=c1[nH]cc(F)c(=O)[nH]1 [FLUOROURACIL] | 4.76 |  | 
2 | COc1ccc(CN(C(=O)Cc2cccs2)c2ccccc2)cc1 | < 4.10 | < 4.10 | < 4.10
3 | COc1cc(N(Cc2ccc(Br)cc2)C(=O)Cc2cccs2)cc(OC)c1OC | 5.11 | 5.27 | 5.19
4 | COc1ccc(CN(C(=O)C(c2ccccc2)c2ccccc2)c2cc(OC)c(OC)c(OC)c2)cc1 | < 4.10 | < 4.10 | < 4.10
5 | COc1ccc(CN(C(=O)COc2cc(OC)c(OC)c(OC)c2)c2cc(OC)c(OC)c(OC)c2)cc1 | < 4.10 | 4.51 | 4.39
6 | COc1ccc(CN(C(=O)Cc2cccs2)c2ccc(OC)c(OC)c2)cc1 | < 4.10 | < 4.10 | < 4.10
7 | COc1ccc(CN(C(=O)Cc2cccc(OC)c2)c2cc(OC)c(OC)c(OC)c2)cc1 | 5.52 | 5.97 | 5.88
8 | COc1cc(N(Cc2ccc(C)cc2)C(=O)Cc2cccs2)cc(OC)c1OC | 4.77 | 6.08 | 5.81
9 | COc1cc(N(Cc2cccc(Cl)c2)C(=O)Cc2cccs2)cc(OC)c1OC | 4.11 | 4.43 | 4.37
10 | COc1ccc(CN(C(=O)Cc2ccccc2)c2cc(OC)c(OC)c(OC)c2)cc1 | 6.07 | 5.17 | 5.57
11 | COc1ccc(CN(C(=O)Cc2ccc(F)cc2)c2cc(OC)c(OC)c(OC)c2)cc1 | 5.62 | 5.74 | 5.60
12 | COc1ccc(CN(C(=O)COc2ccc(OC)cc2)c2cc(OC)c(OC)c(OC)c2)cc1 | 4.18 | 5.20 | 4.33
13 | COc1cc(N(Cc2cccc(C)c2)C(=O)Cc2cccs2)cc(OC)c1OC | 4.57 | 4.71 | 4.37
14 | COc1ccc(CN(C(=O)CSc2nc3ccccc3o2)c2cc(OC)c(OC)c(OC)c2)cc1 |  |  | 5.18
15 | COc1cc(N(Cc2ccc(C(C)(C)C)cc2)C(=O)Cc2cccs2)cc(OC)c1OC | 4.86 | 4.64 | 4.71
16 | COc1cc(N(Cc2ccc(F)cc2)C(=O)Cc2cccs2)cc(OC)c1OC | 4.64 | 4.49 | 4.29
17 | COc1cc(N(Cc2ccc(Cl)cc2)C(=O)Cc2cccs2)cc(OC)c1OC | 4.71 | 4.85 | 5.06
18 | COc1ccc(CN(C(=O)COc2cccc(Cl)c2)c2cc(OC)c(OC)c(OC)c2)cc1 | 4.52 | 4.16 | 4.26
19 | COc1ccc(CN(C(=O)Cc2cccs2)c2cc(Cl)c(Cl)cc2Cl)cc1 | < 4.10 | < 4.10 | < 4.10
20 | COc1ccc(CN(C(=O)Cc2ccc(C)cc2C)c2cc(OC)c(OC)c(OC)c2)cc1 | 4.28 | 4.54 | 4.16
21 | COc1ccc(CN(C(=O)Cc2cccs2)c2cc(OC)c(OC)c(OC)c2)cc1N | 5.78 | 7.00 | 5.61
22 | COc1ccc(CN(C(=O)Cc2cccs2)c2ccc(OC)cc2)cc1 | < 4.10 | < 4.10 | < 4.10
23 | COc1cc(N(Cc2cccc(F)c2)C(=O)Cc2cccs2)cc(OC)c1OC | 4.67 | 4.88 | 4.56
24 | COc1ccc(CN(C(=O)CSc2nncs2)c2cc(OC)c(OC)c(OC)c2)cc1 |  |  | 4.71
25 | COc1ccc(CN(C(=O)CSc2ccccn2)c2cc(OC)c(OC)c(OC)c2)cc1 |  |  | 4.79
26 | COc1ccc(CC(=O)N(Cc2ccc(OC)cc2)c2cc(OC)c(OC)c(OC)c2)cc1 | 5.83 | 5.36 | 6.74
27 | COc1cc(N(Cc2ccccc2)C(=O)Cc2cccs2)cc(OC)c1OC | 4.47 | 4.66 | 4.31
28 | COc1ccc(CN(C(=O)CSc2nnnn2C)c2cc(OC)c(OC)c(OC)c2)cc1 |  |  | 4.84
29 | COc1ccc(CN(C(=O)COc2ccccc2)c2cc(OC)c(OC)c(OC)c2)cc1 | 4.71 | 4.64 | 4.19
